Experimental data reported in patent publication US8597692B2, “Cocoa extract and use thereof” (Barry Callebaut AG, priority 2007, dated 2013).

Experiments:
[1] = Body weight during the experimental period (Example 1); type: in vivo, rat; details: 14-day treatment; CPE 24 and 48 mg/kg, Imipramine 15 mg/kg PO; IMI difference from D5 to D14
Description: (§1) An open field (40 cm high×60 cm in diameter) divided into 9 areas (8 equal squares and the central zone) is used for the measurement of locomotor and behavioral activity, to exclude the possibility that immobility is due to locomotion problems. The experimental devices for the forced swimming test are plexiglas cylinders (50 cm high×20 cm in diameter) filled to 30 cm depth with water at 25° C. In the slightly lit test room, a CCD-TV camera allows the rats to be observed and filmed on VHS-videotapes from a neighbouring room. During the experimental period, rats are weighed 3 times per week, i.e. Monday, Wednesday and Friday. Each rat is individually placed for 3 min in the center of the open field device 5 hours after the 13th treatment and 15 min before the forced swim test pretest session. This test is performed in order to test the effects of the products used on the locomotor activity of the animals and confirm that the results in the forced swim relate to the animal's mental state as opposed to locomotor ability. Immobility is defined as absence of swimming activity other than that necessary to keep the rat's head above the water. Imipramine (15 mg/kg BW, PO) is used as the antidepressant reference substance.

[2] = test system: Male Wistar-Unilever rats; assay: Open field test of locomotor and behavioral activity (Example 1); type: in vivo, rat; details: 3 min, 5 hours after the 13th treatment; CPE 24 and 48 mg/kg, Imipramine 15 mg/kg PO
Description: as §1

[3] = test system: Male Wistar-Unilever rats; assay: Forced swimming test in rat model for depression (Example 1); type: in vivo
Description: Male Wistar-Unilever rats (HsdCpb:WU) (Harlan, Horst, The Netherlands), weighing 200 to 225 g are weighed and randomly divided into 4 groups (n=12). Cocoa extract according to the invention comprising by weight 54-58% polyphenols, 8-9% theobromine, and 0.5-1.5% phenylethylamine is dissolved in spring water and stirred until homogenization just before its administration at the doses of 24 and 48 mg/kg BW, PO, in a volume of administration of 10 ml/kg BW.
The test product is orally administered for 14 days twice a day (2×12 and […]) in the morning and in the afternoon Imipramine (Sigma, France) was stored at room temperature and prepared fresh before testing. It is dissolved in spring water and stirred until homogenization just before its administration at a dose of 15 mg/kg BW, PO, in a volume of administration of 10 ml/kg. Imipramine is administered once a day.
as §1
The test product and the vehicle are orally administered for 14 days, twice a day in the morning and in the afternoon. On D13, the products are administered just after the pretest session which lasted 15 minutes. On D14 the products are administered five hours and one hour prior to the forced swimming test. The test session lasts 5 minutes. The first five minutes of the initial 15-min swimming pretest and the 5-min swimming test session are videotaped for scoring the duration of immobility. Imipramine (15 mg/kg BW, PO) is used as the antidepressant reference substance.

For CN(C)CCCN1c2ccccc2CCc2ccccc21 [IMI, Imipramine], the “body weight compared with the other groups” value [1] was “significantly lower”, the “overt behavioral changes or motor dysfunction in the open field test” value [2] was “Neither administration of Imipramine nor CPE showed significant differences” and the “duration of immobility, Test (Mean ± SEM)” value ([3]; 5-min test session, D14, 15 mg/kg BW PO once a day, n = 12) was 10.33 ± 1.79. For the same compound, the “change of duration of immobility from pretest to test session (paired t-test)” value ([3]; CPE 24 and 48 mg/kg, Imipramine 15 mg/kg PO) was “significantly decreased”, the “duration of immobility in comparison with vehicle, pretest session (Dunnett's t test)” value ([3]; pretest session after a 13 day-period of treatment, Imipramine 15 mg/kg PO) was “significantly reduced” and the “duration of immobility, Pretest (Mean ± SEM)” value ([3]; pretest session, first 5 min, D13, 15 mg/kg BW PO once a day, n = 12) was 21.25 ± 3.70. For the same compound, the “durations of immobility in comparison with vehicle, test session (Dunnett's t test)” value ([3]; test session D14, CPE 24 and 48 mg/kg, Imipramine 15 mg/kg PO) was “significantly reduced”.
